In brackets after ≈: the same amount, converted by molar mass.

In data set [1] the test system is E. Coli NIH JC-2 (IFO 12734). Description: Minimum inhibitory concentration, standard method of Japan Society of Chemotherapy, E. Coli NIH JC-2. The note with it: Escherichia coli, IFO12734. The data set is classed as cell-based. The method, then:
(§1) Antibacterial activity, absorption and excretion of the compounds indicated in Examples were tested as follows.
(§2) The minimum inhibitory concentration (MIC: microgram/ml) is measured by the standard method of Japan Society of Chemotherapy, (Chemotherapy, Volume 29, No.1, pp.76-79, 1981). The results are shown in Table 52 in which compound numbers are the same as those indicated in Examples.

In data set [2] the test system is S. aureus 209P (IFO 12732). Kind of data set: Minimum inhibitory concentration, standard method of Japan Society of Chemotherapy, S. aureus 209P. The data set is classed as cell-based. As to conditions: Staphylococcus aureus. The protocol:
as §1, §2

The subject of a further data set is P. aeruginosa (IFO 3445). Description: Minimum inhibitory concentration, standard method of Japan Society of Chemotherapy, P. aeruginosa. The data set is classed as cell-based. As to conditions: Pseudomonas aeruginosa, IFO3445. The protocol:
as §1, §2

A short description of data set [3]: Recovery in urine after oral administration (disk method, Bacillus subtilis ATCC 6633). The data set is classed as in vivo, male JCL-SD rats. As to conditions: rat, 20 mg/kg, rats, 20 mg/10 ml/kg in 0.5% methylcellulose, fasted overnight, read-out: Excretion Rate, In Urine. The protocol: (§3) The absorption and excretion after oral administration of the compounds of the present invention were tested by measuring the recovery in urine and bile as follows.
To a group of three male JCL-SD rats (6 weeks old) fasted overnight, a subject compound was orally administered as prepared to be 20 mg/10 ml/kg with 0.5% of methylcellulose solution. The sampling was carried out by collecting urine in 0 to 6 hours and 6 to 24 hours. The concentration of the subject compound in the urine was examined by a disk method by using Bacillus subtilis ATCC 6633 as a testing bacillus to obtain an excretion rate in urine for 24 hours.

Data set [4] in a line: Recovery in bile after oral administration (disk method, Bacillus subtilis ATCC 6633). The format is in vivo. The note with it: rat, 20 mg/kg, rats, prepared as in urine test (20 mg/10 ml/kg), read-out: Excretion Rate, In Bile. The method, then: as §3
A subject compound was prepared in the same manner as the recovery test in urine and was orally administered to the rats. The bile was collected by using a polyethylene tube inserted into the choledochus over 24 hours. The concentration of the subject compound in the bile sample was examined in the same manner as the recovery in urine to obtain an excretion rate in bile for 24 hours.

One may read the MIC as the least concentration at which growth counts as inhibited. In the case of `N[C@H]1CCN(c2nc3c(cc2F)c(=O)c(C(=O)O)cn3-c2csnn2)C1` [Compound 58], the MIC in data set [1] came to 0.05 µg/mL (≈ 0.133 µM); in data set [2], 1.56 µg/mL (≈ 4.14 µM); in the data set on P. aeruginosa (IFO 3445) it was 0.39 µg/mL (≈ 1.04 µM).
Regarding `Cl.N[C@H]1CCN(c2nc3c(cc2F)c(=O)c(C(=O)O)cn3-c2cnsn2)C1` [Compound 18, 7-(3-(S)-Aminopyrrolidin-1-yl)-6-fluoro-1-(1,2,5-thiadiazol-3-yl)-1,4-dihydro-4-oxo-1,8-naphthyridine-3-carboxylic acid hydrochloride], the MIC in data set [1] was less than 0.013 µg/mL; in data set [2], 0.2 µg/mL; in the data set with P. aeruginosa (IFO 3445), 0.1 µg/mL. Besides, the dose excreted at 24 h in data set [3] was found to be 20%; in data set [4] it was 2%.
Consider `N[C@H]1CCN(c2c(F)cc3c(=O)c(C(=O)O)cn(Cc4cnsn4)c3c2F)C1` [Compound 126], for which the MIC is 3.13 µg/mL (≈ 7.68 µM) in data set [1], 0.39 µg/mL (≈ 0.957 µM) in data set [2] and 3.13 µg/mL (≈ 7.68 µM) in the data set on P. aeruginosa (IFO 3445).
With `Cc1c(F)c(N2CC[C@H](N)C2)cc2c1c(=O)c(C(=O)O)cn2-c1cnsn1` [Compound 162], the MIC in data set [1] came to 0.013 µg/mL (≈ 0.0334 µM); in data set [2] it was 0.1 µg/mL (≈ 0.257 µM); in the data set with P. aeruginosa (IFO 3445), 0.2 µg/mL (≈ 0.514 µM).
Turning to `Cc1nonc1-n1cc(C(=O)O)c(=O)c2cc(F)c(N3CC[C@H](N)C3)nc21` [Compound 81], the MIC in data set [1] was 0.05 µg/mL (≈ 0.134 µM); in data set [2] it was 0.1 µg/mL (≈ 0.267 µM); against P. aeruginosa (IFO 3445) it was 0.2 µg/mL (≈ 0.534 µM).
`C[C@@H]1CN(c2nc3c(cc2F)c(=O)c(C(=O)O)cn3-c2cnsn2)C[C@@H]1N` (single isomer, unassigned) [Compound 19]: the MIC in data set [1] is less than 0.013 µg/mL; in data set [2], 0.1 µg/mL (≈ 0.256 µM); with P. aeruginosa (IFO 3445) it was 0.39 µg/mL (≈ 0.999 µM). Besides, the dose excreted at 24 h in data set [3] is 80.6%; in data set [4] it was 4.4%.
For the molecule `Cc1nsnc1-n1cc(C(=O)O)c(=O)c2cc(F)c(N3CC[C@H](N)C3)nc21.Cl` [Compound 187, 7-(3-(S)-Aminopyrrolidin-1-yl)-6-fluoro-1-(4-methyl-1,2,5-thiadiazol-3-yl)-1,4-dihydro-4-oxo-1,8-naphthyridine-3-carboxylic acid hydrochloride], the values for the MIC (in data set [1]; in data set [2]; in the data set with P. aeruginosa (IFO 3445)) were 0.05 µg/mL, 0.2 µg/mL and 0.39 µg/mL, respectively.

The values are drawn from patent US5412098A, “Quinolone derivative or salt thereof and antibacterial containing the same” (Wakunaga Seiyaku Kabushiki Kaisha, priority 1991, dated 1995).
